Usually inhibition stands for the percentage by which the read-out fell short of the control.

For experiment [1], the system named is T47D human breast cancer cells. The experiment is described as follows: Soft agar colony growth, T47D cells. The class given is cell-based. The settings on record: for effect on breast cancer cell colony growth: Table 2. The method, then: Base agar plates were prepared containing 0.8% agar and 0.4% agar in Ham's F12. Cells (5×10^4 cells/33 mm^2 well) were suspended in 100 μl of Ham's F12 with 0.4% agar and plated. These plates were maintained at 37° C. for 7 days and examined for the presence of colonies. Individual colonies of 50 μm or greater were examined. T47D cells were treated with 1, 10 and 100 nM PQ1 and SA (succinic acid) as a solvent control. Individual colonies of 50 μm or greater were examined. Statistical significance, *p<0.05, of at least three experiments
FIG. 3(A) MDA-MB-453 and (B) T47D human breast cancer cells were treated with 10 μM of various quinolines for 7 days. Base agar plates were prepared containing 0.8% agar and 0.4% agar in Ham's F12. Cells (5×10^4 cells/33 mm well) were suspended in 100 μl of Ham's F12 with 0.4% agar and plated. These plates were maintained at 37° C. for 7 days and examined for the presence of colonies. Individual colonies of 40 μm or greater were examined. […] However, PQ3 caused a 2.3-fold increase in colony growth in MDA-MB-453 cells and PQ2 caused a 2.6-fold increase in T47D colony growth compared to DMSO. FIGS. 7 and 8 show MDA-MB-453 and T47D colony growth for various concentrations of PQ1 and SA tested for 7 days. The procedures are generally as described above. The cell colony growth decreased using 10 and 100 nM PQ1 for both cell types.
Colony Growth Assay: T47D human breast cancer cells were treated with PQ1. Base agar plates were prepared containing 0.8% agar and 0.4% agar in Ham's F12. Cells (5×10^4 cells/33 mm2 well) were suspended in 100 μl of Ham's F12 with 0.4% agar and plated. These plates were maintained at 37° C. for 7 days and examined for the presence of colonies. Individual colonies of 40 um or greater were examined.
Various oncogenes (e.g. ras, raf, neu, src, mos) down-regulate GJIC while several tumor suppressor genes can up-regulate GJIC. […] Cells were grown in soft agar to assess their capacity for anchorage-independent growth, which is a key feature of cell transformation due to the importance of cell-cell and cell-matrix based tumor suppression. MEC and T47D cells were treated with 10, 100, 1000, and 10000 nM PQ1 for 7 days. A graphical presentation of three experiment results is presented in log scale of PQ1 concentration. […] A 100 nM PQ1 inhibits 66% of colony growth compared to controls, without PQ1 treatment or 100 nM succinic acid.
Colony Growth Using Soft Agar. Cells were treated with 0, 10, 100, 200 and 500 nM PQ1 for 7 days. Base agar plates were prepared containing 0.8% agar and 0.4% agar in Ham's F12. Cells (5×10^4 cells/33 mm^2 well) were suspended in 100 μl of Ham's F12 with 0.4% agar and plated. These plates were maintained at 37° C. for 7 days and examined for the presence of colonies. Individual colonies of 50 μm or greater were examined.

Experiment [2] deals with Cx26. In words: Western blot of Cx26 in T47D cells. The settings on record: 10, 100, 200 and 500 nM, 24 hours. The experiment is classed as cell-based, human. The procedure: T47D cells were dosed with PQ1 for 24 hours. The Western blot analysis was performed as described in Materials and Methods. Whole cell extract was analyzed for Cx 43, Cx32, and Cx26. Experiment was performed at least three times.
Furthermore, whole cell extract of PQ1 treatment was analyzed for the changes in gap junctional proteins, connexins. Cells were treated with 10, 100, 200, and 500 nM PQ1 for 24 hours. Western blot analysis was performed against Cx26, Cx32, and Cx43 (FIG. 17). […] Anti-tubulin was used as a loading control.
Western Blot Analysis. Cells were grown in serum supplemented RPMI media until they were 90% confluent in 75 cm^2 flasks. Cells were kept in starving media containing phenol red-free DMEM with 5% charcoal dextran stripped serum, overnight. Cells were dosed with 0, 10, 100, 200 and 500 nM of PQ1 for 24 hours. Cells were washed three times with cold PBS and then were harvested using lysis buffer (20 mM Tris pH 7.5, 0.5 mM EDTA, 0.5 mM EGTA, 0.5% Triton X-100) with 1:1000 dilution of protease inhibitors (Sigma-Aldrich, Saint Louis, Mo.). Cell lysate was sonicated and centrifuged at 13,000 rpm for 30 minutes at 4° C. […] Western blots were detected by enhanced chemiluminescence detection reagents (Pierce, Rockford, Ill., USA).
(In western blotting, separated proteins are transferred to a membrane and probed.)

Experiment [3] has as its system SW620 colon cancer cells. The experiment is described as follows: Gap junction activity, SW620 colon cancer cells. The experiment is classed as cell-based. The method, then:
However, PQ3 has an opposite effect on mammary cancer cell lines. […] A summary of PQ-mediated GJIC activity and colony growth in breast and colon cancer cells is presented in Tables 1, 2, and 3, as well as FIGS. 10-13. In FIG. 10, SW620 cells were dosed for 24 hours with PQ1 at 100, 200, 300, and 500 nM. The gap junction activity was measured as a percent of control, as previously described. It was seen that all concentrations on PQ1 increased the gap junction activity in SW620 colon cancer cells as compared to the control. In FIG. 11, the effect of PQ1 on the expression of PKCγ was studied at concentrations of 100, 200, 300 and 500 nM PQ1 for 24 hours. It is seen in FIG. 11 that PQ1 has no effect on the expression of PKCγ at the levels tested. In FIGS. 12 and 13, the effect of PQ1 on the colony growth of SW620 colon cancer cells was measured with 1-100 nM PQ1 (FIG. 12) and 10 uM PQ1 (FIG. 13).

Take `COc1cc(NCCCN)c2nccc(C)c2c1Oc1cccc(C(F)(F)F)c1.O=C(O)CCC(=O)O` [PQ1, 6-Methoxy-8-[(3-aminopropyl)amino]-4-methyl-5-(3-trifluoromethylphenyloxy) quinoline succinic acid]: the colony growth attenuation in experiment [1] (10 μM, 7 days, compared to control) is 80-95%. In addition, the “colony growth compared to control” value in experiment [1] (10, 100, 1000 and 10000 nM, 7 days) is “significant inhibition”. In addition, the cell colony growth entry in experiment [1] (10 and 100 nM, 7 days) is “decreased”. Further, in experiment [1] (Homo sapiens, 168 h, 100 nM, 7 days, compared to controls), the inhibition at 0.1 µM worked out at 66%. In addition, the “effect on breast cancer cell colony growth” value in experiment [1] is recorded as “Decrease”. Besides, the Cx26 expression entry in experiment [2] is recorded as “no effect”. In addition, the “gap junction activity as compared to the control” value in experiment [3] (100, 200, 300 and 500 nM, 24 hours) is “increased”. Moreover, the “effect on gap junction intercellular communication” value in experiment [3] (Table 3, 300 nM) is listed as “Increase”.
On to `COc1cc(N)c2nccc(C)c2c1Oc1cccc(C(F)(F)F)c1` [PQ3, 8-Amino-6-methoxy-4-methyl-5-(3-trifluoromethylphenyloxy)quinoline], for which the “effect on colony growth” value in experiment [1] (10 μM, 7 days) is on record as “inhibitory effect”. Moreover, the “effect on breast cancer cell colony growth” value in experiment [1] was “Decrease”. In addition, the “effect on gap junction intercellular communication” value in experiment [3] (Table 3, 500 nM) is “Increase”.
